Test results from patent US20240321457A1, “SYSTEMS FOR AND METHODS OF TREATMENT SELECTION” (THE REGENTS OF THE UNIVERSITY OF CALIFORNIA, priority 2020, published 2024).

Key:
[1] = test system: Gαi; experiment: NanoBiT Gαi1 dissociation assay (split luciferase); assay type: cell-based; details: 60 minutes
Description: The NanoBiT G-protein dissociation assay, based on a split-luciferase system, was performed as previously described with some modifications (Inoue et al., 2019). All DNA constructs were provided by Dr. Asuka Inoue (Tohoku University, Japan). NanoBiT plasmids (pCAGGS) include Gαi1-LgBiT, Gβ1-native, and SmBiT-Gγ2 (CAAX C68S mutant). Gαi-DREADD (pcDNA3.1) was used as a synthetic Gαi-coupled GPCR. Briefly, CAL-33 and HET-1A cells were seeded on poly-D-lysine coated (Sigma, Cat #P7280), opaque, white 96-well plates (Falcon Cat #353296). The following day cells were transfected with NanoBiT and receptor plasmids using Lipofectamine 3000 (ThermoFisher Scientific, Cat #L3000008) according to manufacturer recommendations for a 12-well scale (10 μL transfection mix to each well). The NanoBiT plasmids were mixed at a ratio of 100 ng Gαi1-LgBiT, 500 ng Gβ1, 500 ng SmBiT-Gγ2, and 200 ng of receptor if needed. For gene knockdown experiments, 10 pmol of pooled siControl (Dharmacon, Cat #D-001810-10-20), siFGFR3 (Mission siRNA, Cat #SIHK0780, SIHK0781, SIHK0782), or siDaple (Dharmacon, Cat #L-033364-01-0005) was included in the plasmid mix. Media was changed the following day. Two days after transfection, media was aspirated from each well and washed once with HBSS. Cells were incubated in HBSS with a final concentration of 5 μM native coelenterazine (Biotium, Cat #10110-1) for 30 minutes at room temperature protected from light. Basal luminescence was read and ligand prepared for final concentrations of 10 ng/mL human bFGF (Roche Cat #11123149001) and 10 μM clozapine-N-oxide (Cayman Chemical, Cat #NC1044836). After ligand addition, luminescence was read in kinetic loops (each well ˜every 30 seconds) for 60 minutes total (Tecan Spark). Raw luminescent values were normalized to the corresponding basal value for each well and subsequently to the mean vehicle ratio (raw/basal) at time 0. Significance was calculated using a one-way ANOVA at the 60 minute time point.
To test this idea, a split luciferase assay (Gαi NanoBiT) was used, in which signal is lost upon activation of Gαi and dissociation from Gβγ (FIG. 15C and FIG. 16A). As a control, an engineered Designer Receptor Exclusively Activated by Designer Drugs (DREADD) receptor was first transfected, and the resulting cell population stimulated with the DREADD ligand, clozapine-N-oxide (CNO).
Referring to FIG. 15C, NanoBiT biosensor measures Gαi activation through dissociation of the luciferase split between Gα and Gβγ. CNO mediates canonical GPCR signaling through the synthetic Gαi-coupled DREADD receptor. FGF mediates HNSCC-specific signaling through FGFR3 and Daple.

[2] = test system: solid tumors with FGFR mRNA overexpression; details: phase I trials; cited from earlier work
[3] = test system: ERK phosphorylation; experiment: ERK phosphorylation immunoblot after FGF stimulation; assay type: cell-based; details: FGF 10 ng/mL, time course
Description: (§1) CAL-33 and HET-1A cells were seeded on poly-D-lysine-coated 6-well plates. Cells were transfected with siRNA using Lipofectamine RNAiMAX (Thermo Fisher Scientific, Cat #100014472) according to manufacturer recommendations. After overnight serum starvation, cells were stimulated with vehicle, 10 ng/mL bFGF, or 10 μM CNO. Cells were washed once with PBS and lysed in RIPA buffer (50 mM Tris-HCl pH 6.8, 150 mM NaCl, 1% NP-40, 0.5% sodium deoxycholate, 0.1% SDS) with protease and phosphatase inhibitors (Bimake, Cat #B14001, B15001-A/B). Lysates were briefly sonicated and cleared by centrifugation before boiling in Laemmli sample buffer (Bio-Rad Cat #1610747). After separation on 10% acrylamide gels and transfer to PVDF membranes, membranes were blocked with 2% BSA in TBST before incubating with antibodies. […]
Referring to FIG. 16C, ERK phosphorylation over a time course was measured by immunoblotting in CAL-33 and HET-1A cells stimulated with FGF (10 ng/mL).

[4] = test system: PAK1/2 phosphorylation; experiment: PAK1/2 phosphorylation immunoblot after FGF stimulation; assay type: cell-based; details: FGF stimulation 0, 5, 10, 30, 60 minutes
Description: as §1
Referring to FIG. 15G, PAK1/2 autophosphorylation was measured by immunoblot analysis over a time course of FGF stimulation (0, 5, 10, 30, 60 minutes) in CAL-33 and HET-1A cells.

[5] = test system: CAL-33 cells; experiment: Scratch migration assay; assay type: cell-based; details: fibronectin-plated CAL-33 cells; 10 ng/mL bFGF, 24 hours; versus vehicle
Description: CAL-33 cells were seeded on 12-well plates coated with 10 μg/mL fibronectin in PBS (Sigma Aldrich, Cat #F2006-1MG). Once cells reached confluence, a vertical scratch was made with a pipette tip and washed well with PBS before adding serum-free media. Cells were stimulated with vehicle, 10 ng/mL bFGF, or 1% serum for 24 hours. Images were taken at the 0 and 24 hour time points (2× magnification) and the scratch area was quantified using ImageJ. Percent scratch closure was calculated for each well and significance assessed using a one-way ANOVA.
Referring to FIG. 15H, a vertical scratch was introduced to fibronectin-plated CAL-33 cells. Images were taken at 0 and 24 hours after FGF stimulation (scale bar=200 μm). (I) Quantification of replicate scratch closure assays from panel H (*P<0.05 when compared with the vehicle-treated group).

C[N+]1([O-])CCN(C2=Nc3cc(Cl)ccc3Nc3ccccc32)CC1 [CNO, clozapine-N-oxide]
Gαi activation (loss of luciferase signal) ([1]; CAL-33 cells expressing Gαi NanoBiT and DREADD receptor, CNO 10 μM): Robust Gαi activation
Gαi activation (loss of luciferase signal) ([1]; HET-1A cells expressing Gαi NanoBiT and DREADD receptor, CNO 10 μM): Robust Gαi activation

COCc1c(-c2cc3cc(C)cc(OC)c3s2)c2c(N)ncnn2c1CN1CCNC(=O)C1 [rogaratinib]
objective response rate [2]: 67%

FGF: human bFGF (Roche), fibroblast growth factor used as ligand for stimulation
ERK phosphorylation ([3]; CAL-33 cells): rapidly induced ERK phosphorylation
ERK phosphorylation ([3]; HET-1A cells): rapidly induced ERK phosphorylation
phosphorylation of PAK1/2 ([4]; CAL-33 cells): results in downstream phosphorylation of PAK1/2
phosphorylation of PAK1/2 ([4]; HET-1A cells): not observed
Gαi activation (loss of luciferase signal) ([1]; CAL-33 cells, Gαi NanoBiT, FGF 10 ng/mL): induce Gαi activation
Gαi activation (loss of luciferase signal) ([1]; HET-1A cells, Gαi NanoBiT, FGF 10 ng/mL): no such activation occurred
cell migration (scratch closure) [5]: statistically significant increase
